Test results taken from patent US8022079B2, “Methods of modulating PPAR gamma-type receptors” (Galderma Research & Development, priority 2003, dated 2011).
Counter-ions that a name gives are not always drawn.

How the values were obtained:
PPARγ = biological target: T1, PPARγ (Homo sapiens, UniProt P37231); experiment: Crossover-curve PPAR transactivation test (PPARγ); format: cell-based; details: HeLN cells stably transfected with ERE-βGlob-Luc-SV-Neo and Gal-hPPARγ; Schild regression against reference agonist; n.a. means not active; read-out: PPARγ Kd app
T1 sequence (P37231 238-505 limits assumed): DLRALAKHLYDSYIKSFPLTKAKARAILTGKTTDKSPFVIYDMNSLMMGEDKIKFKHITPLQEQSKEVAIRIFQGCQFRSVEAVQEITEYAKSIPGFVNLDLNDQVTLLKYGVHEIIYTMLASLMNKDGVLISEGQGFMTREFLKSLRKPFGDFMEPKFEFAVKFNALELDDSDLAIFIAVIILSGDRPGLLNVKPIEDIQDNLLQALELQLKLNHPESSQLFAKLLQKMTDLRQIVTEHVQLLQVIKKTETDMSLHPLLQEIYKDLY
Protocol: (§1) The activation of PPAR receptors with an agonist (activator) in HeLN cells leads to the expression of a reporter gene, luciferase, which, in the presence of a substrate, generates light. The modulation of the PPAR receptors is measured by quantifying the luminescence produced after incubating the cells in the presence of a reference agonist. The ligands displace the agonist from its site. The measurement of the activity is performed by quantifying the light produced. This measurement makes it possible to determine the modulatory activity of the compounds according to the invention by determining the constant that represents the affinity of the molecule for the PPAR receptor. Since this value can fluctuate depending on the basal activity and the expression of the receptor, it is referred to as Kd apparent (KdApp in nM).
(§2) To determine this constant, “crossover curves” of the test product against a reference agonist are performed in a 96-well plate: 10 concentrations of the test product plus a concentration 0 are arranged in a line, and 7 concentrations of the agonist plus a concentration 0 are arranged in a column. This represents 88 measurement points for 1 product and 1 receptor. The remaining 8 wells are used for repeatability controls.
(§3) Measurements are also taken for total agonist controls with the same products.
(§4) The HeLN cell lines used are stable transfectants containing the plasmids ERE-βGlob-Luc-SV-Neo (reporter gene) and PPAR (α, δ, γ) Gal-hPPAR. These cells are inoculated into 96-well plates at a rate of 10 000 cells per well in 100 μl of DMEM medium without phenol red and supplemented with 10% of defatted calf serum. The plates are then incubated at 37° C. and 7% CO2 for 16 hours.
(§5) The various dilutions of the test products and of the reference ligand are added at a rate of 5 μl per well. The plates are then incubated for 18 hours at 37° C. and 7% CO2. The culture medium is removed by turning over and 100 μl of a 1:1 PBS/luciferine mixture are added to each well. After 5 minutes, the plates are read by the luminescence detector.

PPARα = biological target: T2, PPARα (Homo sapiens, UniProt Q07869); experiment: Crossover-curve PPAR transactivation test (PPARα); format: cell-based; details: HeLN cells stably transfected with ERE-βGlob-Luc-SV-Neo and Gal-hPPARα; Schild regression against reference agonist; n.a. means not active; read-out: PPARα Kd app
T2 sequence (Q07869 200-468 limits assumed): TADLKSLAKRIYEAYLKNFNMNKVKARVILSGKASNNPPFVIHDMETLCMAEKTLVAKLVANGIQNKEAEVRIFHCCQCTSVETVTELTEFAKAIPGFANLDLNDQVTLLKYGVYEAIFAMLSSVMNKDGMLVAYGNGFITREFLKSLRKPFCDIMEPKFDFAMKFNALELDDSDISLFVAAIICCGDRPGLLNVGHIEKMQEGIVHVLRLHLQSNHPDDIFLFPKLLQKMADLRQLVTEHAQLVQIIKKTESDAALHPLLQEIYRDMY
Protocol: as §1, §2, §3, §4, §5

Row | Kd (PPARγ) [nM] | Kd (PPARα) [nM] | Molecule
1 | 60 | 2000 | CCCCCCCNC(=O)N(C)c1ncc(-c2ccc(C[C@H](OCC)C(=O)O)cc2)s1 [Example 7, 2(S)-Ethoxy-3-{4-[2-(3-heptyl-1-methylureido)thiazol-5-yl]phenyl}propanoic acid]
2 | 30 |  | CCCCCNC(=O)N(C)c1ncc(-c2ccc(C[C@H](OCC)C(=O)O)cc2)s1 [Example 8, 2(S)-Ethoxy-3-{4-[2-(1-methyl-3-pentylureido)thiazol-5-yl]phenyl}propanoic acid]
3 | 0.5 | 120 | CCCCCCCNC(=O)N(C)c1cccc(-c2ccc(C[C@H](OCC)C(=O)O)cc2)n1 [Example 10, 2(S)-Ethoxy-3-{4-[6-(3-heptyl-1-methylureido)pyrid-2-yl]phenyl}propanoic acid hydrochloride]
4 | 1000 | 2000 | CCCCCC(=O)N(C)Cc1cc(-c2ccc(C[C@H](Nc3ccccc3C(=O)c3ccccc3)C(=O)O)cc2)cs1 [Example 15, 2(S)-(2-Benzoylphenylamino)-3-(4-{5-[(hexanoylmethylamino)methyl]thiophen-3-yl}phenyl)propanoic acid]
5 | 4 |  | CCCCCCCNC(=O)N(C)c1cccc(-c2ccc(CC(OCC)C(=O)O)cn2)c1 (stereo not shown) [Example 20, 2-Ethoxy-3-{6-[3-(3-heptyl-1-methylureido)phenyl]pyrid-3-yl}propanoic acid]

The remaining lines, values behind:

Row | Molecule | Kd (PPARγ) [nM] | Kd (PPARα) [nM]
6 | CCCCCCCC(=O)N(C)Cc1cc(-c2ccc(C[C@H](OCC)C(=O)O)cc2)cs1 [Example 5, 2(S)-Ethoxy-3-(4-{5-[(methyloctanoylamino)methyl]thiophen-3-yl}phenyl)propanoic acid] | 0.06 | 4000
7 | CCCCCCCC(=O)N(C)Cc1ccc(-c2ccc(C[C@H](OCC)C(=O)O)cc2)s1 [Example 6, 2(S)-Ethoxy-3-(4-{5-[(methyloctanoylamino)methyl]thiophen-2-yl}phenyl)propanoic acid] | 2 | 1000
8 | N-{3-[5-(2,4-dioxothiazolidin-5-ylmethyl)pyrid-2-yl]benzyl}-N-methyloctanoylamide [Example 4] | 500 | 
